Legend:
[1] = Relative bioavailability of voxilaprevir amorphous free acid tablets vs Form VI tablets, fasted and fed, healthy subjects (Table 3); assay type: in vivo, human
Excerpt: Accordingly, a spray dried dispersion of voxilaprevir in the amorphous free acid form was selected for incorporation into the tablet formulation.

[2] = Physical stability of tablets spiked with crystalline voxilaprevir Form VIII and Form X (Tables 22, 23); assay type: physicochemical; details: in tablets in the presence of pre-existing crystalline voxilaprevir
Procedure: For each of the impact studies, the sofosbuvir/velpatasvir SSD/voxilaprevir SSD tablets were packaged in a designated commercial packaging configuration (28-count, 100 mL HPDE bottle, coil, 1 g desiccant), and stored for 12 weeks at 25° C./60% RH and 40° C./75% RH. Tablets were also packaged in open containers (28-count, 100 mL HPDE bottle without cap) and stored for 4 weeks at 40° C./75% RH and for 1 week at 50° C./92% RH.
The impact of crystalline voxilaprevir Form VIII and Form X seeds on the physical stability and dissolution of sofosbuvir/velpatasvir SSD/voxilaprevir SSD tablets was evaluated (Tables 22 and 23). As described in Table 22, sofosbuvir/velpatasvir SSD/voxilaprevir SSD tablets Lots A and B were spiked with 5 and 10% w/w Form VIII (% w/w with respect to total voxilaprevir), respectively. Sofosbuvir/velpatasvir SSD/voxilaprevir SSD tablets Lots C and D, as described in Table 23, were spiked with 10 and 20% w/w Form X (% w/w with respect to total voxilaprevir), respectively.

[3] = Aqueous solubility of voxilaprevir Form VIII relative to Form VI; assay type: physicochemical
[4] = 100 mg tablets, healthy subjects

higher Cmax compared to Form VI tablets (2×50 mg) [1, 4] | higher exposure (AUC) compared to Form VI tablets (2×50 mg) [1, 4] | Cmax ([1]; single dose 100 mg, healthy subjects, fed (with moderate food)) | Geometric Least Square Ratio Amorphous Free Acid/Form VI GMR, AUCinf ([1]; single dose, fasted) | Geometric Least Square Ratio Amorphous Free Acid/Form VI GMR, Cmax ([1]; single dose, fasted) | aqueous solubility, less than that of crystalline Form VI [3] | Compound | tendency to crystallize [2]
~43% | approximately 9% | 44.2 ng/mL | 1.09 | 1.43 |  | CC[C@@H]1[C@@H]2CN(C(=O)[C@H](C(C)(C)C)NC(=O)O[C@@H]3C[C@H]3CCCCC(F)(F)c3nc4ccc(OC)cc4nc3O2)[C@@H]1C(=O)N[C@]1(C(=O)NS(=O)(=O)C2(C)CC2)C[C@H]1C(F)F [Amorphous Free Acid, voxilaprevir] | no tendency to crystallize
 |  |  |  |  | approximately 50% | CC[C@@H]1[C@@H]2CN(C(=O)[C@H](C(C)(C)C)NC(=O)O[C@@H]3C[C@H]3CCCCC(F)(F)c3nc4ccc(OC)cc4nc3O2)[C@@H]1C(=O)N[C@]1(C(=O)NS(=O)(=O)C2(C)CC2)C[C@H]1C(F)F [Form VIII, voxilaprevir] | 
 |  |  |  |  |  | COC[C@H]1C[C@@H](c2ncc(-c3ccc4c(c3)COc3cc5c(ccc6nc([C@@H]7CC[C@H](C)N7C(=O)[C@@H](NC(=O)OC)C(C)C)[nH]c65)cc3-4)[nH]2)N(C(=O)[C@H](NC(=O)OC)c2ccccc2)C1 [amorphous velpatasvir free base, velpatasvir] | no tendency to crystallize
